This note sets out measurements from ChEMBL document CHEMBL1799957, “Cerebrosides and 2-pyridone alkaloids from the halotolerant fungus Penicillium chrysogenum grown in a hypersaline medium” (J Nat Prod, 2011).

Converted amounts (≈) assume the structure as drawn.

One test relates to Bacillus subtilis. The experiment in a line: Antimicrobial activity against Bacillus subtilis by agar dilution method. In kind it is functional.
Another test has as its system Pseudomonas aeruginosa. The experiment in a line: Antimicrobial activity against Pseudomonas aeruginosa by agar dilution method. In kind it is functional. Background: In agar dilution the substance is mixed into plates at graded concentrations.
The subject of the next test is Escherichia coli. The experiment in a line: Antimicrobial activity against Escherichia coli by agar dilution method. The class given is functional.
In a further test the test system is P388. In words: Cytotoxicity against mouse P388 cells by MTT assay. The class given is functional, cell-based. Background: Formazan colour is commonly taken as a measure of viable cells.
For another test, the system named is HeLa. The experiment in a line: Cytotoxicity against human HeLa cells by MTT assay. The class given is functional, cell-based.
A further test relates to Staphylococcus aureus. In words: Antimicrobial activity against Staphylococcus aureus by agar dilution method. In kind it is functional.
The subject of another test is Candida albicans. In words: Antimicrobial activity against Candida albicans by agar dilution method. In kind it is functional.
In another test the test system is Klebsiella aerogenes. In words: Antimicrobial activity against Enterobacter aerogenes by agar dilution method. The class given is functional.
The test system of a further test is A549. The experiment in a line: Cytotoxicity against human A549 cells by SRB assay. In kind it is functional, cell-based. (In general: The SRB assay estimates cell density from bound dye.)
A further test has as its system HL-60. The experiment in a line: Cytotoxicity against human HL60 cells by MTT assay. The class given is functional, cell-based.

As usually defined, the MIC is the lowest concentration that inhibits growth of the organism. High values mean a need for much substance, low ones inhibition by little substance. A word on the IC50: it is the concentration needed to halve the response being measured. A lower IC50 goes with greater potency in that assay.

In the case of `CCCCCCCCCCCCCCC/C=C/[C@@H](O)C(=O)N[C@@H](CO[C@@H]1O[C@H](CO)[C@@H](O)[C@H](O)[C@H]1O)[C@H](O)/C=C/CC/C=C(\C)CCCCCC` [CHRYSOGESIDE B], the minimum inhibitory concentration (MIC) in the test on Bacillus subtilis was > 150 µM; with Pseudomonas aeruginosa it was > 150 µM; with Escherichia coli it was > 150 µM; in the test with Staphylococcus aureus it was > 150 µM; against Candida albicans, > 150 µM; in the test with Klebsiella aerogenes, 1.72 µM (≈ 1.25 µg/mL). In addition, the IC50 in the test with P388 and with HeLa was > 50 µM in each case.
Regarding `CCCCCCCCCCCCCCC/C=C/[C@@H](O)C(=O)N[C@@H](CO[C@@H]1O[C@H](CO)[C@@H](O)[C@H](O)[C@H]1O)[C@H](O)/C=C/CC/C=C(\C)CCCCC` [CHRYSOGESIDE C], the MIC against Bacillus subtilis, in the test on Pseudomonas aeruginosa, against Escherichia coli, against Staphylococcus aureus, against Candida albicans and with Klebsiella aerogenes was > 150 µM in each case. Moreover, the IC50 in the test on P388 and with HeLa was > 50 µM each time.
Regarding `CCC[C@H](O)c1ccc(=O)[nH]c1C` [CHRYSOGEDONE A], the MIC in the test with Bacillus subtilis, against Pseudomonas aeruginosa, in the test on Escherichia coli, with Staphylococcus aureus, with Candida albicans and in the test with Klebsiella aerogenes was > 150 µM in each case. The IC50 in the test with A549 and with HL-60 was > 50 µM throughout.
Regarding `CCC[C@H](O)c1ccc(=O)[nH]c1CO` [CHRYSOGEDONE B], the MIC in the test with Bacillus subtilis, in the test on Pseudomonas aeruginosa, in the test with Escherichia coli, against Staphylococcus aureus, in the test on Candida albicans and with Klebsiella aerogenes was > 150 µM in each case. The IC50 with A549 and in the test with HL-60 was > 50 µM each time.
As for `CCCCCCCCCCCCCCC/C=C/[C@@H](O)C(=O)N[C@@H](CO[C@@H]1O[C@H](CO)[C@@H](O)[C@H](O)[C@H]1O)[C@H](O)/C=C/CC/C=C(\C)CCCCCCCC` [CHRYSOGESIDE D], the MIC in the test with Bacillus subtilis, with Pseudomonas aeruginosa, with Escherichia coli, against Staphylococcus aureus, against Candida albicans and in the test on Klebsiella aerogenes was > 150 µM in each case. Besides, the IC50 in the test with P388 and in the test on HeLa was > 50 µM throughout.
Turning to `CCCCCCCCCCCCCCCCC[C@@H](O)C(=O)N[C@@H](CO[C@@H]1O[C@H](CO)[C@@H](O)[C@H](O)[C@H]1O)[C@H](O)/C=C/CC/C=C(\C)CCCCCC` [CHRYSOGESIDE E], the MIC in the test on Bacillus subtilis, in the test with Pseudomonas aeruginosa, with Escherichia coli, in the test with Staphylococcus aureus, against Candida albicans and against Klebsiella aerogenes was > 150 µM each time. In addition, the IC50 with P388 and in the test with HeLa was > 50 µM each time.
Consider `CCCCCCC/C=C\CC/C=C/[C@@H](O)[C@H](CO[C@@H]1O[C@H](CO)[C@@H](O)[C@H](O)[C@H]1O)NC(=O)[C@H](O)/C=C/CCCCCCCCCCCCCC` [CHRYSOGESIDE A], for which the MIC in the test with Bacillus subtilis, in the test with Pseudomonas aeruginosa, against Escherichia coli, against Staphylococcus aureus, against Candida albicans and in the test with Klebsiella aerogenes was > 150 µM in each case. Further, the IC50 in the test on P388 and in the test with HeLa was > 50 µM in each case.
